# Assay results as given in patent US12226405B2, “Compounds and compositions for inhibiting the activity of HIF2-alpha and their methods of use” (Novartis AG, priority 2020, dated 2025).
# Test system: 786-O subcutaneous xenografts
# Assay: In vivo 786-O tumor growth model
# Details: female nude mice, 30 mg/kg p.o. qd, 21 days
# Procedure: Female nude mice bearing 786-O subcutaneous xenografts were treated with Example 31 at 30 mg/kg p.o. qd or vehicle control. Treatments started 34 days post tumor inoculation and lasted 21 days. Values are provided as mean±SEM with a sample size of n=6 mice per group. The initial tumor volume at day 0 was approximately 260 mm^3.
# Experiments were performed in female nude Crl:NU(NCr)-Foxnlnu-Homozygous mice (Charles River, Germany). Animals were 6-9 weeks of age at time of application of the compound. Animals were housed under Optimized Hygienic Conditions in Makrolon type III cages (max. 5 animals per cage) with free access to food and water. […]
# Cell line and cell culture: 786-O and SKRC-01 cells were grown in 500 ml RPMI1640 Medium+5 ml L-Glutamine+50 ml FCS+5 ml Sodium Pyruvate+5 ml HEPES and incubated at 37° C. in a 5% CO2 humidified atmosphere. Cells were harvested with trypsin-EDTA, re-suspended in culture medium (with additives) and counted with a Casy® system. […]
# Evaluation of antitumor activity: Tumor volumes were measured with calipers and determined according to the formula: length×diameter^2×π/6. In addition to presenting changes of tumor volumes over the course of treatments, antitumor activity is expressed as T/C % (mean change of tumor volume of treated animals/mean change of tumor volume of control animals)×100. […]
compound,measurement,value
"FC(F)OC1=CC(C(F)(F)F)=CN2C[C@@]3(CCC(F)(F)c4c3ccnc4Cl)N=C12 [Example 31, (S)-1′-chloro-8-(difluoromethoxy)-8′,8′-difluoro-6-(trifluoromethyl)-7′,8′-dihydro-3H,6′H-spiro[imidazo[1,2-a]pyridine-2,5′-isoquinoline]]",anti-tumor activity,demonstrated
